From patent US12590309B2, “Reprogramming of lipid metabolism to inhibit T cell senescence and enhance tumor immunotherapy” (Saint Louis University, priority 2019, dated 2026)
Read-outs that look alike come from different tables or passages of the source.

Columns and labels:
[1] = system: naïve CD4+ and CD8+ T cells co-cultured with nTreg cells; assay: SA-β-gal staining, T cell senescence induced by Treg cells; format: cell-based, human; settings: for senescence induction in T cells co-cultured with nTreg cells, lipid supplement: naïve CD4+ T cells, lipids 5 μM or 10 μM, 3 days
Protocol: Senescence associated β-galactosidase staining. Senescence associated β-galactosidase (SA-β-gal) activity in senescent T cells was detected as the inventors previously described 23,32,33. Naive CD4+ or CD8+ T cells were labeled with CFSE (4.5 μM), and co-cultured with Treg cells at a ratio of 4:1 in anti-CD3-coated 24-well plates for 3 days. Co-cultured naïve T cells were then separated from co-cultures using FACS sorting gated on CFSE positive populations, and then stained with SA-β-Gal staining reagent. […] For some experiments, naïve T cells were pretreated with the following inhibitors and then co-cultured with Treg cells. SA-β-gal expression in the co-cultured naïve T cells was determined. These inhibitors include: ACAT inhibitor Avasimable (5 μM and 10 μM), lipase inhibitor orlistat (10 μM), and cPLA2α inhibitor MAFP (1 μM and 5 μM) (Cayman Chemical); ATM inhibitor KU55933 (10 μM, Tocris Bioscience); stat1 inhibitor MTA (5 μM), stat3 inhibitor S3I-201 (10 μM) (Sigma-Aldrich); MAPK inhibitors including U0126 (10 μM) and SB203580 (10 μM) (Calbiochemistry).
(§1) Lipid supplement assay. Lysophosphatidylcholine (LPC, 16:0 LPC, 16:0 aLPC, and 16:0 pLPC), Phosphatidylethanolamine (PE, 16:0 lyso PE) and Phosphatidylserine (PS, 16:0 lyso PS) were purchased from the Avanti Polar Lipids, INC. C2-Ceramide was purchased from Sigma. All the lipids were dissolved in chloroform, evaporated under a gentle stream of nitrogen and then immediately dissolved in an ethanol vehicle (0.1%). Naïve CD4+ T cells were first treated with or without the lipids (5 μM or 10 μM) for 1 hour and then co-cultured with Treg cells at a ratio of 4:1 in anti-CD3-coated (2 μg/ml) plates for 3 days. The treated naïve CD4+ T cells were then performed SA-β-gal and Oil red O staining.

B16F10 tumor = assay: B16F10 melanoma, Pmel-1 T cell adoptive transfer therapy model in C57BL/6 mice; settings: Pmel-1 T cells pretreated with ATK 0.5 μM 2 hours; ATK 10 mg·kg-1/mouse i.p. day 1, 4, 7, 10
senescent T cells [2] = assay: Inflammatory cytokine mRNA by real-time qPCR in responder/senescent T cells; format: cell-based, human
Protocol: (§2) Reverse-transcription quantitative PCR analysis. Total RNA was extracted from T cells using Trizol reagent (Invitrogen), and cDNA was transcribed using a SuperScript II RT kit (Invitrogen), both according to manufacturers' instructions. Expression levels of each gene were determined by reverse-transcription PCR using specific primers, and mRNA levels in each sample were normalized to the relative quantity of the housekeeping GAPDH or β-actin gene expression. All experiments were performed in triplicate.

senescent T cells [3] = assay: Suppressive activity of senescent T cells, [3H]-thymidine proliferation assay; format: cell-based, human; settings: data not shown
Protocol: Functional proliferation assay. Proliferation assays were performed using a [^3H]-thymidine incorporation assay, as the inventors previously described (Liu et al., 2018; Ye et al., 2014; 2012; Peng et al., 2005; 2007). Naïve CD4+ T cells (1×10^5/well) purified from healthy donors were co-cultured with Treg-treated T cells at a ratio of 10:1 in 200 μl of T cell assay medium containing 2% human AB. After 56 hours of culture, [3H]-thymidine was added at a final concentration of 1 μCi/well, followed by an additional 16 hours of culture. The incorporation of [^3H]-thymidine was measured with a liquid scintillation counter.

[4] = system: naïve CD4+ and CD8+ T cells co-cultured with nTreg cells; assay: Oil-Red O staining, LD formation in T cells co-cultured with Treg cells; format: cell-based, human
Protocol: as §1
(§3) Oil-Red O staining. The treated T cells were washed in PBS (pH 7.2), fixed with 4% formaldehyde for 30 minutes, and treated with 60% isopropanol for 2-5 minutes. Cells were further stained with freshly prepared Oil-Red O staining solution (Sigma-Aldrich) in isopropanol (60%) for 5 minutes, followed by quick rinse with isopropanol (60%). The stained cells were then washed with H2O thoroughly and lipid droplets in T cells were evaluated using a light microscope.

naïve T cells [5] = assay: SA-β-gal staining of naïve T cells cultured with the substance alone; format: cell-based, human
Protocol: Senescence associated β-galactosidase staining. […] Naive CD4+ or CD8+ T cells were labeled with CFSE (4.5 μM), and co-cultured with Treg cells at a ratio of 4:1 in anti-CD3-coated 24-well plates for 3 days. Co-cultured naïve T cells were then separated from co-cultures using FACS sorting gated on CFSE positive populations, and then stained with SA-β-Gal staining reagent. For tumor-induced T cell senescence, anti-CD3 activated naïve CD4+ T cells or CD8+ T cells were co-cultured with or without tumor cells at ratio of 1:1 for 1 day and then separated and cultured for additional 3 days. For some experiments, naïve T cells were pretreated with the following inhibitors and then co-cultured with Treg cells. SA-β-gal expression in the co-cultured naïve T cells was determined. These inhibitors include: ACAT inhibitor Avasimable (5 μM and 10 μM), lipase inhibitor orlistat (10 μM), and cPLA2α inhibitor MAFP (1 μM and 5 μM) (Cayman Chemical); ATM inhibitor KU55933 (10 μM, Tocris Bioscience); stat1 inhibitor MTA (5 μM), stat3 inhibitor S3I-201 (10 μM) (Sigma-Aldrich); MAPK inhibitors including U0126 (10 μM) and SB203580 (10 μM) (Calbiochemistry).

naïve T cells [6] = assay: Oil-Red O staining of naïve T cells cultured with the substance alone; format: cell-based, human
Protocol: as §3

[7] = system: naïve CD8+ T cells co-cultured with nTreg cells; assay: Lipidomics (ESI-MS/MS) of Treg-induced senescent T cells; format: cell-based, human
Protocol: Lipidomics analysis. Lipids from T cells were extracted by the method of Bligh and Dyer in the presence of internal standards including eicosanoic acid, 1-0-heptadecanoyl-LPC, dieicosanoyl-PC, ditetradecanoyl-PE, ditetradecanoyl-PS, N-heptadecanoyl-Cer, and cholesteryl heptadecanoate (Bligh and Dyer, 1959). Extracted lipids were resuspended in methanol/chloroform (2:1, by vol.) and analyzed by ESI-MS in the direct infusion mode at a flow rate of 3 μl/min using a Thermo Electron TSQ Quantrum Ultra® instrument. Samples were analyzed in both the positive and negative ion mode using a shotgun lipidomics approach (Han and Gross, 2005). For LPC, neutral loss (NL) scanning of 59.1 was monitored in the positive ion mode for sodiated molecular ions. NL scanning of 368.5 was performed for sodiated CE molecular species in the positive ion mode (Bowden et al., 2011). PE was derivatized to fMOC-PE species and monitored in negative ion mode using NL scanning of 222.2. Neutral loss scanning for Cer (NL 256.2), PC (NL50) and PS (NL 87) was performed in the negative ion mode (Han and Gross, 2005). Fatty acids were converted to pentafluorobenzyl esters and quantified using negative ion chemical ionization detection and gas chromatography (Quehenberger et al., 2010). Spectra were averaged over 3-5 min and processed utilizing Xcalibur® software (Thermo Electron). Individual molecular species were quantified by comparing the ion intensity of individual molecular species to that of the appropriate internal standards following corrections for type I and type II 13C isotope effects (Han and Gross, 2005). Additional corrections were made from response curves for CE molecular species (Bowden et al., 2011). Each sample was normalized to cell number, and values are expressed per million cells.

cPLA2α = assay: cPLA2α, p21 and p53 expression in Treg-treated T cells (western blot, qPCR, flow cytometry); format: cell-based, human
Protocol: Flow cytometry analysis. The expression markers on T cells were determined by flow cytometry analysis after surface staining or intracellular staining with anti-human specific antibodies conjugated with PE or Alexa Flour488. The human antibodies included: anti-CD27, anti-CD28, anti-phospho-ERK (Thr202/Tyr204), anti-phospho-p38 (Thr180/Tyr182), anti-phospho-STAT1 (Tyr701), anti-phospho-STAT3 (Tyr705 or Ser727), anti-phospho-ATM, anti-phospho-H2AX, anti-phospho-CHK2, anti-phospho-53BP1, and anti-cPLA2α, which were purchased from BD Biosciences, Biolegend, or Cell Signaling Technology. For Bodipy 493/503 staining (Thermo Fisher Scientific), T cells were incubated with Bodipy 493/503 (1 μg/ml) at room temperature for 15 minutes. All stained cells were analyzed on a LSR II cytometer (BD Bioscience) and data analyzed with FlowJo software (Tree Star).
Western-blotting analysis. CFSE-labeled naïve CD4+ or CD8+ T cells were co-cultured with Treg or control T cells at a ratio of 4:1 in the anti-CD3 antibody-precoated plates (2 μg/ml) for 3 days. In some experiments, T cells were pretreated with the cPLA2α inhibitor MAFP (5 M) for 24 hours, and then co-cultured with Treg cells. Treated T cells were then sorted by FACS gating on CFSE positive T cells. Whole cell lysates of the purified CD4+ T cells were prepared for western blot analyses. Western blots were developed with the Chemiluminescent Substrate (KPL, Maryland). The rabbit polyclonal antibodies used in the western blot analyses are as following: anti-cPLA2α, anti-P53, anti-P21, and anti-GAPDH. All antibodies were purchased from the Cell Signaling Technology.
as §2

[8] = system: MAPK and STAT1/STAT3 signaling; assay: Phosphorylation of p38, ERK, STAT1 and STAT3 by flow cytometry in Treg-treated CD4+ T cells; format: cell-based, human; settings: pretreated 24 hours (KU55933 10 μM; MAFP 5 μM), Treg co-culture 3 days
[9] = naïve CD4+ and CD8+ T cells pretreated with inhibitor 24 hours, co-cultured with nTreg 4:1, anti-CD3, 3 days
[10] = naïve CD4+ and CD8+ T cells pretreated with inhibitor 24 hours, co-cultured with nTreg 4:1, 3 days
[11] = anti-CD3 coated plates, 3 days, no Treg cells
[12] = CD8+ T cells pretreated with inhibitor 24 hours, nTreg co-culture 3 days
[13] = pretreated with inhibitor 24 hours, Treg co-culture

## CCCCC/C=C\C/C=C\C/C=C\C/C=C\CCCC(=O)C(F)(F)F [ATK]
[1]; [9]
  senescent (SA-β-gal+) T cell populations induced by Treg cells: can prevent T cell senescence
B16F10 tumor
  anti-tumor immunity and tumor immunotherapy, ATK: enhances anti-tumor immunity and tumor immunotherapy in vivo

## CCCCCCCCCCCCC/C=C/[C@@H](O)[C@H](CO)NC(C)=O [Cer, C2-Ceramide]
[1]
  senescence induction in T cells co-cultured with nTreg cells, lipid supplement: markedly prevented senescence induction

## O=C(O)C(=O)CBr [3-BrPA]
Senescent T cells [2]
  secretion of pro-inflammatory cytokines by senescent T cells: significantly decreased
Senescent T cells [3]
  suppressive activity of senescent T cells on proliferation of effector T cells: inhibited their suppressive activity

## O=CC[C@@H](O)[C@H](O)[C@H](O)CO [2-DG]
Senescent T cells [2]; senescent CD8+ T cells, 3-BrPA (30 μM) or 2-DG (2 mM), additional 1 day
  secretion of pro-inflammatory cytokines by senescent T cells: significantly decreased
Senescent T cells [3]
  suppressive activity of senescent T cells on proliferation of effector T cells: inhibited their suppressive activity

## Phosphatidylethanolamine [PE]
[1]
  senescence induction in T cells co-cultured with nTreg cells, lipid supplement: markedly prevented senescence induction

## C[S+]([O-])c1ccc(-c2nc(-c3ccncc3)c(-c3ccc(F)cc3)[nH]2)cc1 (stereo not shown) [SB203580]
[1]
  senescent (SA-β-gal+) T cell populations induced by Treg cells: prevented senescence induction
[4]
  LD formation (Oil red O+ T cell populations) induced by Treg cells: significantly decreased Oil red O+ T cell populations
naïve T cells [5]
  cell senescence (SA-β-gal) in naïve T cells, substance alone: did not promote cell senescence
naïve T cells [6]
  LD formation (Oil-red O) in naïve T cells, substance alone: did not promote cell senescence and LD formation
[7]
  CE and PC in senescent T cells: significantly prevented the Treg-induced up-regulation of CE and down-regulation of PC
cPLA2α
  cPLA2α expression in Treg-induced senescent T cells: dramatically suppressed the enhanced cPLA2α expression

## CC(C)c1cc(C(C)C)c(CC(=O)NS(=O)(=O)Oc2c(C(C)C)cccc2C(C)C)c(C(C)C)c1 [avasimible]
[1]; [9]
  senescent (SA-β-gal+) T cell populations induced by Treg cells: dramatically reduced
[4]; [10]
  LD formation (Oil red O+ T cell populations) induced by Treg cells: dramatically reduced
naïve T cells [5]; [11]
  cell senescence (SA-β-gal) in naïve T cells, substance alone: does not induce cell senescence
naïve T cells [6]; [11]
  LD formation (Oil-red O) in naïve T cells, substance alone: does not induce cell senescence and LD formation
[7]; CD8+ T cells pretreated 24 hours, nTreg co-culture 3 days
  total and sub-fractions of CE in senescent T cells: did not significantly down-regulate total and sub-fractions of CE

## Phosphatidylserine [PS]
[1]
  senescence induction in T cells co-cultured with nTreg cells, lipid supplement: markedly prevented senescence induction

## CSC[C@H]1O[C@@H](n2cnc3c(N)ncnc32)[C@H](O)[C@@H]1O [MTA]
[1]; [9]
  senescent (SA-β-gal+) T cell populations induced by Treg cells: prevented senescence induction
[4]; [10]
  LD formation (Oil red O+ T cell populations) induced by Treg cells: significantly decreased Oil red O+ T cell populations
naïve T cells [5]; [11]
  cell senescence (SA-β-gal) in naïve T cells, substance alone: did not promote cell senescence
naïve T cells [6]; [11]
  LD formation (Oil-red O) in naïve T cells, substance alone: did not promote cell senescence and LD formation
[7]; [12]
  CE and PC in senescent T cells: significantly prevented the Treg-induced up-regulation of CE and down-regulation of PC
cPLA2α; [13]
  cPLA2α expression in Treg-induced senescent T cells: dramatically suppressed the enhanced cPLA2α expression

## O=c1cc(-c2cccc3c2Sc2ccccc2S3)oc(N2CCOCC2)c1 [KU55933]
[1]; [9]
  senescent (SA-β-gal+) T cell populations induced by Treg cells: dramatically reduced
[4]; [10]
  LD formation (Oil red O+ T cell populations) induced by Treg cells: dramatically reduced
[7]; CD8+ T cells pretreated with KU55933 (10 μM) 1 day, nTreg co-culture 3 days
  CE and FFA in senescent T cells: markedly prevented Treg-induced up-regulation of CE and FFA
cPLA2α; [13]
  cPLA2α expression in Treg-induced senescent T cells: significantly decreased both mRNA and protein expression of cPLA2α
[8]
  phosphorylation of p38, ERK, STAT1 and STAT3 in Treg-treated CD4+ T cells: prevented phosphorylation of MAPKs and STAT1/STAT3

## N#CC(=C(/N)Sc1ccccc1N)/C(C#N)=C(\N)Sc1ccccc1N [U0126]
[1]
  senescent (SA-β-gal+) T cell populations induced by Treg cells: prevented senescence induction
[4]
  LD formation (Oil red O+ T cell populations) induced by Treg cells: significantly decreased Oil red O+ T cell populations
naïve T cells [5]
  cell senescence (SA-β-gal) in naïve T cells, substance alone: did not promote cell senescence
naïve T cells [6]
  LD formation (Oil-red O) in naïve T cells, substance alone: did not promote cell senescence and LD formation
[7]
  CE and PC in senescent T cells: significantly prevented the Treg-induced up-regulation of CE and down-regulation of PC
cPLA2α
  cPLA2α expression in Treg-induced senescent T cells: dramatically suppressed the enhanced cPLA2α expression

## CCCCCCCCCCC[C@@H](C[C@@H]1OC(=O)[C@H]1CCCCCC)OC(=O)[C@H](CC(C)C)NC=O [orlistat]
naïve T cells [5]; [11]
  cell senescence (SA-β-gal) in naïve T cells, substance alone: dramatically increased cell senescence
naïve T cells [6]; [11]
  LD formation (Oil-red O) in naïve T cells, substance alone: promoted LD formation

## Lysophosphatidylcholine [LPC]
[1]
  senescence induction in T cells co-cultured with nTreg cells, lipid supplement: markedly prevented senescence induction

## Cc1ccc(S(=O)(=O)OCC(=O)Nc2ccc(C(=O)O)c(O)c2)cc1 [S3I-201]
[1]; [9]
  senescent (SA-β-gal+) T cell populations induced by Treg cells: prevented senescence induction
[4]; [10]
  LD formation (Oil red O+ T cell populations) induced by Treg cells: significantly decreased Oil red O+ T cell populations
naïve T cells [5]; [11]
  cell senescence (SA-β-gal) in naïve T cells, substance alone: did not promote cell senescence
naïve T cells [6]; [11]
  LD formation (Oil-red O) in naïve T cells, substance alone: did not promote cell senescence and LD formation
[7]; [12]
  CE and PC in senescent T cells: significantly prevented the Treg-induced up-regulation of CE and down-regulation of PC
cPLA2α; [13]
  cPLA2α expression in Treg-induced senescent T cells: dramatically suppressed the enhanced cPLA2α expression
